Measurements as given in article PMC4604124, “In Vitro Characterization of the Pharmacological Properties of the Anti-Cancer Chelator, Bp4eT, and Its Phase I Metabolites” (PLoS ONE, 2015).
Where “and” joins values, the source holds several entries; their conditions need not be identical. Equal entries are not always repeated. Where two headings read alike, the source gives them in different places.

How the values were obtained:
H9c2 cardiomyoblasts = assay: MTT cytotoxicity assay, H9c2 cells; type: cell-based, rat; conditions: for IC50: MTT
Outline: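 72 h/37°C exposure, 0.1% DMSO. Plating: MCF-7 5,000; HCT116, A549 2,000; H9c2 10,000 cells/well, H9c2 switched to serum/pyruvate-free DMEM 24 h. MTT OD 570 nm, 690 nm background subtracted. Viability as % untreated control; IC50 derived.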

[1] = MTT cytotoxicity assay, 3T3 cells; type: cell-based, mouse; conditions: mouse, 3T3 mouse embryo fibroblasts, 3T3, 10 000 b/j; for viability at 72 h, 1 μM: koncentrace 1 μM; for viability at 72 h, 3 μM: koncentrace 3 μM; for viability at 72 h, 10 μM: koncentrace 10 μM; for viability at 72 h, 30 μM: koncentrace 30 μM; for viability at 72 h, 100 μM: koncentrace 100 μM; for viability at 72 h, 300 μM: koncentrace 300 μM; for viability at 72 h, 1000 μM: koncentrace 1000 μM
Outline: (§1)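 Non-cancerous 3T3 mouse embryo fibroblasts were plated at 10,000 cells/well in 96-well plates and cultured for 24 h/37°C. The medium was then replaced with serum- and pyruvate-free DMEM for a further 24 h/37°C. Cells were exposed to agents for 72 h/37°C with 0.1% DMSO present, and viability was measured by MTT.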

[2] = test system: 3T3 mouse embryo fibroblasts; assay: MTT cytotoxicity assay, 3T3 cells; type: cell-based; conditions: for IC50: MTT
Outline: as §1

caspases 3/7 = assay: Caspase activity, luminescent kit, caspases 3/7; type: cell-based, human; conditions: for kaspáza (3) a 7, raw signal / kaspáza (3) a 7, signal / viabilita: individual experiments by date; for kaspáza (3) a 7, raw signal, průměry / kaspáza (3) a 7, % kontroly / kaspáza (3) a 7, signal / viabilita, průměry: mean; for kaspáza (3) a 7, % kontroly / kaspáza (3) a 7, signal / viabilita / kaspáza (3) a 7, signal / viabilita, průměry: normalised to viability
Procedure: To assess the effect of the compounds on caspase activity, MCF-7 cells were incubated with 100 nM Bp4eT or its metabolites for 3, 24 or 72 h/37°C in 96-well plates, as described above. The cells were then lysed by adding 100 μL of cold lysis buffer (100 mM HEPES, 10 mM CHAPS, 10 mM D-L-dithiothreitol, pH 7.4) to 100 μL of medium in each well. Lysates were immediately frozen at -80°C. Thawed lysates were used to assess caspase activity using luminescent kits for caspases 3/7, 8 and 9 (Promega, Madison, WI, USA). The luminescence was measured using the Tecan Infinite 200M plate reader. Caspase activity in the experimental groups was corrected according to the cellular viability of each group and expressed as a percentage of activity of the untreated control (100%).

[3] = individual experiments, read-out: MTT viability (0 = 100)
[4] = mean, read-out: MTT viability (0 = 100), průměr

For CCN=CNN=C(c1ccccc1)c1ccccn1 [Bp4eA, N ^3-ethyl-N ^1-[phenyl(pyridin-2-yl)methylene]formamidrazone], the “MTT, relative to control (0 = 100)” value (H9c2 cardiomyoblasts; H9c2, 10 000 b/j, 1 μM, průměr (mean), sheet Bp4eA) was 96.26, the “MTT, relative to control (0 = 100)” value (H9c2 cardiomyoblasts; H9c2, 10 000 b/j, 1 μM, single experiment (date), sheet Bp4eA) was 96.9641 and 92.8493 and 97.4859 and 95.7195 and 98.2981 and the “MTT, relative to control (0 = 100)” value (H9c2 cardiomyoblasts; H9c2, 10 000 b/j, 3 μM, průměr (mean), sheet Bp4eA) was 96.27. The “MTT, relative to control (0 = 100)” value (H9c2 cardiomyoblasts; H9c2, 10 000 b/j, 3 μM, single experiment (date), sheet Bp4eA) was 100.784 and 93.7843 and 97.6949 and 91.6948 and 97.3803, the “MTT, relative to control (0 = 100)” value (H9c2 cardiomyoblasts; H9c2, 10 000 b/j, 10 μM, průměr (mean), sheet Bp4eA) was 95.56 and the “MTT, relative to control (0 = 100)” value (H9c2 cardiomyoblasts; H9c2, 10 000 b/j, 10 μM, single experiment (date), sheet Bp4eA) was 96.5102 and 92.1411 and 95.5166 and 98.0809. For the same molecule, the “MTT, relative to control (0 = 100)” value (H9c2 cardiomyoblasts; H9c2, 10 000 b/j, 30 μM, průměr (mean), sheet Bp4eA) was 93.18, the “MTT, relative to control (0 = 100)” value (H9c2 cardiomyoblasts; H9c2, 10 000 b/j, 30 μM, single experiment (date), sheet Bp4eA) was 94.6024 and 93.1446 and 95.1622 and 88.8218 and 94.1801 and the “MTT, relative to control (0 = 100)” value (H9c2 cardiomyoblasts; H9c2, 10 000 b/j, 100 μM, průměr (mean), sheet Bp4eA) was 76.55. For the same molecule, the “MTT, relative to control (0 = 100)” value (H9c2 cardiomyoblasts; H9c2, 10 000 b/j, 100 μM, single experiment (date), sheet Bp4eA) was 76.7908 and 72.9908 and 82.9441 and 73.781 and 76.2525, the “MTT, relative to control (0 = 100)” value (H9c2 cardiomyoblasts; H9c2, 10 000 b/j, 300 μM, průměr (mean), sheet Bp4eA) was 66.55 and the “MTT, relative to control (0 = 100)” value (H9c2 cardiomyoblasts; H9c2, 10 000 b/j, 300 μM, single experiment (date), sheet Bp4eA) was 71.4763 and 63.147 and 62.7404 and 68.8465. For the same molecule, the “MTT, relative to control (0 = 100)” value (H9c2 cardiomyoblasts; H9c2, 10 000 b/j, 1000 μM, průměr (mean), sheet Bp4eA) was 23.16, the “MTT, relative to control (0 = 100)” value (H9c2 cardiomyoblasts; H9c2, 10 000 b/j, 1000 μM, single experiment (date), sheet Bp4eA) was 17.0741 and 23.4615 and 18.1134 and 33.9931 and the IC50 (H9c2 cardiomyoblasts; H9c2, 10 000 b/j, single experiment (date), sheet Bp4eA, read-out: IC50 měřené) was 510 µM and 315 µM and 533 µM. It also gave an IC50 (H9c2 cardiomyoblasts; Rattus norvegicus, H9c2, 72 h, H9c2, 72 h/37°C, mean ± SD, n ≥ 4, read-out: IC50) of 416 ± 122 µM, an IC50 (H9c2 cardiomyoblasts; Rattus norvegicus, H9c2, H9c2, 10 000 b/j, průměr (mean), sheet Bp4eA, read-out: IC50 měřené) of 416 µM and an IC50 (H9c2 cardiomyoblasts; Rattus norvegicus, H9c2, H9c2, 10 000 b/j, single experiment (date), sheet Bp4eA, read-out: IC50 měřené) of 306 µM. For the same molecule, the viability at 72 h, 1 μM [1, 3] was 110%, the viability at 72 h, 1 μM [1, 4] was 100% and the viability at 72 h, 3 μM [1, 3] was 106%. For the same molecule, the viability at 72 h, 3 μM [1, 4] was 98.2%, the viability at 72 h, 10 μM [1, 3] was 103% and the viability at 72 h, 10 μM [1, 4] was 94.7%. For the same molecule, the viability at 72 h, 30 μM [1, 3] was 101%, the viability at 72 h, 30 μM [1, 4] was 92.8% and the viability at 72 h, 100 μM [1, 3] was 88.8%. The viability at 72 h, 100 μM [1, 4] was 87.3%, the viability at 72 h, 300 μM [1, 3] was 80.5% and the viability at 72 h, 300 μM [1, 4] was 78.1%. The viability at 72 h, 1000 μM [1, 3] was 37.5%, the viability at 72 h, 1000 μM [1, 4] was 47.2% and the IC50 ([2]; 3T3, 10 000 b/j, individual experiments, read-out: IC50) was 1010 µM and 1150 µM. For the same molecule, the “MTT viability (0 = 100)” value ([2]; 3T3, 10 000 b/j, koncentrace 1 μM, individual experiments) was 95.1233 and 93.3461 and 101.857, the “MTT viability (0 = 100)” value ([2]; 3T3, 10 000 b/j, koncentrace 3 μM, individual experiments) was 92.5164 and 97.328 and 96.9903 and the “MTT viability (0 = 100)” value ([2]; 3T3, 10 000 b/j, koncentrace 10 μM, individual experiments) was 86.2678 and 91.552 and 97.4344. For the same molecule, the “MTT viability (0 = 100)” value ([2]; 3T3, 10 000 b/j, koncentrace 30 μM, individual experiments) was 90.9815 and 83.2122 and 96.551, the “MTT viability (0 = 100)” value ([2]; 3T3, 10 000 b/j, koncentrace 100 μM, individual experiments) was 87.8661 and 89.8957 and 82.8198 and the “MTT viability (0 = 100)” value ([2]; 3T3, 10 000 b/j, koncentrace 300 μM, individual experiments) was 76.7642 and 78.9793 and 76.2498. The “MTT viability (0 = 100)” value ([2]; 3T3, 10 000 b/j, koncentrace 1000 μM, individual experiments) was 48.7008 and 53.1589 and 49.6824, the IC50 ([2]; Mus musculus, Fibroblast, 3T3, 10 000 b/j, individual experiments, read-out: IC50) was 748 µM and the IC50 ([2]; Mus musculus, Fibroblast, 3T3, 10 000 b/j, mean, read-out: IC50, průměr) was 1030 µM. For the same molecule, the IC50 ([2]; Mus musculus, Fibroblast, 72 h, 3T3, 72 h/37°C, mean ± SD, n ≥ 4, read-out: IC50) was 1030 ± 204 µM, the “kaspáza (3) a 7, raw signal” value (caspases 3/7; 3 hodiny) was 1911.5 and 1519 and 1669 and 1490 and the “kaspáza (3) a 7, raw signal, průměry” value (caspases 3/7; 3 hodiny) was 1647.38. The “kaspáza (3) a 7, % kontroly” value (caspases 3/7; 3 hodiny) was 103.19 % kontroly, the “kaspáza (3) a 7, signal / viabilita” value (caspases 3/7; 3 hodiny) was 19.7461 and 15.6915 and 17.241 and 15.3919 and the “kaspáza (3) a 7, signal / viabilita, průměry” value (caspases 3/7; 3 hodiny) was 17.0176. The “kaspáza (3) a 7, raw signal” value (caspases 3/7; 24 hodin) was 2415 and 2091.5 and 2337 and 2002.5, the “kaspáza (3) a 7, raw signal, průměry” value (caspases 3/7; 24 hodin) was 2211.5 and the “kaspáza (3) a 7, % kontroly” value (caspases 3/7; 24 hodin) was 101.36 % kontroly. For the same molecule, the “kaspáza (3) a 7, signal / viabilita” value (caspases 3/7; 24 hodin) was 25.2632 and 21.8791 and 24.4473 and 20.9481, the “kaspáza (3) a 7, signal / viabilita, průměry” value (caspases 3/7; 24 hodin) was 23.1344 and the “kaspáza (3) a 7, raw signal” value (caspases 3/7; 72 hodin) was 7143 and 7295 and 7483 and 8002. The “kaspáza (3) a 7, raw signal, průměry” value (caspases 3/7; 72 hodin) was 7480.75, the “kaspáza (3) a 7, % kontroly” value (caspases 3/7; 72 hodin) was 108.88 % kontroly and the “kaspáza (3) a 7, signal / viabilita” value (caspases 3/7; 72 hodin) was 76.7734 and 78.4071 and 80.4278 and 86.006. For the same molecule, the “kaspáza (3) a 7, signal / viabilita, průměry” value (caspases 3/7; 72 hodin) was 80.4036.
